According to patent publication US10261017B2, “Methods for detecting and categorizing skin sensitizers” (University of Mississippi, priority 2014, dated 2019):
Where a name gives a salt, the structure may show the parent alone. Read-outs that look alike come from different tables or passages of the source.

Tests used:
[1] = cited from earlier work; for LLNA EC3: reported results (Table 7)
[2] = system: thiol peptide; conditions: cited from earlier work
[3] = system: thiol peptide; test: Cys-DPRA (Direct Peptide Reactivity Assay), literature data; conditions: for Cys-DPRA binary classification: FN: false negative; for Cys-DPRA binary classification: FP: false positive; for Cys-DPRA binary classification: TN: true negative; for Cys-DPRA binary classification: TP: true positive
[4] = system: ARE-dependent gene activity in a recombinant cell line; conditions: cited from earlier work
[5] = Microplate spectrophotometric method (DCYA assay), fluorescence end-point; conditions: for DCYA 100-RI: RI = reactivity index, 2 equiv. electrophile, pH 10 buffer; for DCYA binary classification: FN: false negative; for DCYA binary classification: FP: false positive; for DCYA binary classification: TN: true negative; for DCYA binary classification: TP: true positive, positive if 100-RI <95; for DCYA assay reactivity / classification in words: microplate spectrophotometric method
[6] = reported results from the literature

| Compound | LLNA EC3 [1] [%] | Cys-DPRA % Pept. remain. [2, 6] [%] | Cys-DPRA binary classification: FN [3] | Cys-DPRA binary classification: FP [3] | Cys-DPRA binary classification: TN [3] | Cys-DPRA binary classification: TP [3] | KeratinoSens ™ EC3 ([4]; reported results (Table 7)) [µM] | DCYA 100-RI [5] | DCYA binary classification: FN [5] | DCYA binary classification: FP [5] | DCYA binary classification: TN [5] | DCYA binary classification: TP [5] | DCYA assay reactivity / classification in words [5] | LLNA Classification ([1]; published literature) | Cys-DPRA reactivity in words ([2]; literature) | DCYA adduct after long incubation ([5]; after 24 h of incubation) | Cys-DPRA % Pept. remain. [2] [%] | KeratinoSens ™ EC3 [4] [µM] |
| --- | --- | --- | --- | --- | --- | --- | --- | --- | --- | --- | --- | --- | --- | --- | --- | --- | --- | --- |
| CCC=CC=CC=O [2,4-Heptadienal] | 4 | 2.7 | 0 | 0 | 0 | 1 | 21.91 | 54.1 | 0 | 0 | 0 | 1 | – | – | – | – | – | – |
| CC(=O)C(=O)CC(C)C [5-Methyl-2,3-hexanedione] | – | 74.2 | 0 | 0 | 0 | 1 | 332.21 | 90.3 | 0 | 0 | 0 | 1 | – | – | – | – | – | – |
| CC(C=O)Cc1ccc(C(C)(C)C)cc1 (centres unmarked) [Lilial] | – | 86 | 0 | 1 | 0 | 0 | >2000 | – | 1 | 0 | 0 | 0 | non-reactive | – | – | – | – | – |
| O=c1c(-c2ccccc2)c1-c1ccccc1 [Diphenyl cyclopropenone] | 0.003 | 1.2 | 0 | 0 | 0 | 1 | 1.84 | 96.3 | 1 | 0 | 0 | 0 | – | – | – | – | – | – |
| CCC/C=C/C=O [trans-2-Hexenal] | 5.5 | 2.1 | 0 | 0 | 0 | 1 | 374.57 | 29.9 | 0 | 0 | 0 | 1 | – | moderate sensitizer | – | – | – | – |
| COc1cc(C=O)ccc1O [Vanillin] | – | 96.8 | 0 | 0 | 1 | 0 | >2000 | 106.4 | 0 | 0 | 1 | 0 | – | – | – | – | – | – |
| OCC=Cc1ccccc1 [Cinnamyl alcohol] | 21 | 100 | – | – | – | – | >2000 | 105.0 | – | – | – | – | – | – | – | – | – | – |
| CC/C=C\CCCCC=O [cis-6-Nonenal] | – | 92 | 0 | 0 | 0 | 1 | 687.67 | 107.3 | 1 | 0 | 0 | 0 | – | – | – | – | – | – |
| CCCCBr [1-Bromobutane] | – | – | 0 | 1 | 0 | 0 | >2000 | – | 0 | 0 | 1 | 0 | non-reactive | – | minimal reaction | minor DCYA adduct | – | – |
| CCOC(=O)/C=C\C(=O)OCC [Diethyl maleate] | 5.8 | 0 | 0 | 0 | 0 | 1 | 82.85 | −8.84 | 0 | 0 | 0 | 1 | – | – | – | – | – | – |
| CC(C)=CCCC(C)=CCCC(C)=CC=O [Farnesal] | – | 83.6 | 0 | 0 | 0 | 1 | >2000 | – | – | – | – | – | – | – | – | – | – | – |
| O=[N+]([O-])c1ccc(Cl)c([N+](=O)[O-])c1 [1-Chloro-2,4-dinitrobenzene] | – | 0 | 0 | 0 | 0 | 1 | 3.89 | – | 1 | 0 | 0 | 0 | – | – | – | – | – | – |
| O=C1OC(=O)C2CCCCC12 (centres unmarked) [1,2-Cyclohexanedicarboxylic anhydride] | 0.84 | 84.3 | – | – | – | – | >2000 | 104.6 | – | – | – | – | – | – | – | – | – | – |
| Clc1ccccc1 [Chlorobenzene] | – | – | 0 | 0 | 1 | 0 | – | 97.8 | 0 | 0 | 1 | 0 | – | – | – | – | 99.6 | >2000 |
